Drawing on US5885995A, “Inhibitors of farnesyl-protein transferase” (Merck & Co., Inc., priority 1997, dated 1999), this text covers IC50 for one molecule.

Counter-ions that a name gives are not always drawn. Where only a bound is given, the exact number is not on record here.

The target of this experiment is T1, human FPTase (Homo sapiens, UniProt P49354+P49356).
T1 construct: made in house
In words: In vitro inhibition of human farnesyl-protein transferase (FPTase). The class given is biochemical. As to conditions: [3H]-FPP, 100 nM Ras-CVIM, 30 min, read-out: IC50 (inhibitory activity against human FPTase).

Turning to `N#Cc1ccc(Cn2cncc2CN2CCN(c3cccc(Cl)c3)CC2=O)cc1` [Example 1, 4-(3-Chlorophenyl)-1-[1-(4-cyanobenzyl)-5-imidazolylmethyl]-2-piperazinone hydrochloride], the IC50 is at most 10 µM.
